Results taken from ChEMBL document CHEMBL1201862, “PubChem BioAssay data set” (2004).
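Test compounds were applied to cells in 96-well plates for 48 hours at 5 doses. Here, GI50 denotes the concentration required for 50% inhibition of growth.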 Active and inactive are the calls of the source. Cut-off read from the data, not from the text of the source: active = GI50 up to about 1.1 µM and inactive = higher.

Columns and labels:
Assay in all cases: NCI anticancer screen, dose series, 48 h
NCI-H23 = system: NCI-H23
SF-268 = system: SF-268
SK-MEL-5 = system: SK-MEL-5
A549 = system: A549
DMS-273 = system: DMS-273
HL-60 = system: HL-60
CCRF-CEM = system: CCRF-CEM
UO-31 = system: UO-31
SK-MEL-28 = system: SK-MEL-28
K562 = system: K562
786-0 = system: 786-0
SF-539 = system: SF-539
RXF 393 = system: RXF 393
Malme-3M = system: Malme-3M
LOX IMVI = system: LOX IMVI
SK-OV-3 = system: SK-OV-3
HCT-116 = system: HCT-116
MOLT-4 = system: MOLT-4
A498 = system: A498
Hs-578T = system: Hs-578T

SMILES | GI50 (NCI-H23) | GI50 (SF-268) | GI50 (SK-MEL-5) | GI50 (A549) | GI50 (DMS-273) | GI50 (HL-60) | GI50 (CCRF-CEM) | GI50 (UO-31) | GI50 (SK-MEL-28) | GI50 (K562) | GI50 (786-0) | GI50 (SF-539) | GI50 (RXF 393) | GI50 (Malme-3M) | GI50 (LOX IMVI) | GI50 (SK-OV-3) | GI50 (HCT-116) | GI50 (MOLT-4) | GI50 (A498) | GI50 (Hs-578T)
CC1CN(c2ccc(Cl)cc2)CC(C)OC(=O)O1 (stereo not drawn) | > 100 µM (inactive) | > 100 µM (inactive) | > 100 µM (inactive) | > 100 µM (inactive) | > 100 µM (inactive) | > 100 µM (inactive) | > 100 µM (inactive) | > 100 µM (inactive) | > 100 µM (inactive) | > 100 µM (inactive) | > 100 µM (inactive) | > 100 µM (inactive) | > 100 µM (inactive) | > 100 µM (inactive) | > 100 µM (inactive) | > 100 µM (inactive) |  |  |  | 
Cc1ccc(C)c(N2C(=O)C(=O)C(c3nc4ccccc4s3)/C(=N\c3cccc4c(=O)[nH][nH]c(=O)c34)C2=O)c1 (stereo not drawn) | > 100 µM (inactive) | > 100 µM (inactive) | > 100 µM (inactive) | > 100 µM (inactive) | > 100 µM (inactive) | > 100 µM (inactive) | > 100 µM (inactive) | > 100 µM (inactive) | > 100 µM (inactive) | > 100 µM (inactive) | > 100 µM (inactive) | 91.8 µM (inactive) |  | > 100 µM (inactive) | > 100 µM (inactive) | > 100 µM (inactive) | > 100 µM (inactive) | > 100 µM (inactive) | > 100 µM (inactive) | 
CC(=O)n1c2ccccc2c2nc3nc(Oc4ccc(C)cc4)c4ccccc4c3cc21 | 21.8 µM (inactive) | 92.3 µM (inactive) | > 100 µM (inactive) | > 100 µM (inactive) | > 100 µM (inactive) |  | > 100 µM (inactive) | > 100 µM (inactive) | > 100 µM (inactive) | > 100 µM (inactive) | 65.8 µM (inactive) | > 100 µM (inactive) |  | > 100 µM (inactive) | > 100 µM (inactive) | > 100 µM (inactive) | > 100 µM (inactive) | > 100 µM (inactive) |  | 
O=C1C(=O)C(Br)(Br)C(Br)=C1Br | > 10 µM (inactive) | > 10 µM (inactive) | 15.4 µM (inactive) | 37.4 µM (inactive) | 22.3 µM (inactive) | 18.7 µM (inactive) | 16.2 µM (inactive) | 17.8 µM (inactive) | 15.6 µM (inactive) | 20 µM (inactive) | 16.4 µM (inactive) | 19 µM (inactive) | > 10 µM (inactive) | 20 µM (inactive) | 13.7 µM (inactive) | > 100 µM (inactive) |  | 24.4 µM (inactive) |  | 
O=C1c2cc3ccccc3cc2C2(c3ccc(Cl)cc3)N[C@H]3CCCC[C@@H]3N12 (stereo partly drawn) | 14.6 µM (inactive) | 16.5 µM (inactive) | 16.7 µM (inactive) | 9.62 µM (inactive) |  | 13.6 µM (inactive) | 48 µM (inactive) | 18.3 µM (inactive) | 12.3 µM (inactive) | 26.9 µM (inactive) | 11.2 µM (inactive) | 10.1 µM (inactive) | 9.89 µM (inactive) | 15.1 µM (inactive) | 19 µM (inactive) | 14.6 µM (inactive) | 5.68 µM (inactive) | 40.4 µM (inactive) | 18.3 µM (inactive) | 11.7 µM (inactive)
COC(=O)c1c(C)cccc1CC1Cc2c(C)cccc2C1=O (stereo not drawn) | 25.8 µM (inactive) | 31 µM (inactive) | 20.7 µM (inactive) | 28.4 µM (inactive) |  | 16.9 µM (inactive) | 23 µM (inactive) | 16.9 µM (inactive) | 55.8 µM (inactive) | 29.6 µM (inactive) | 32.4 µM (inactive) | 40.8 µM (inactive) | 27.9 µM (inactive) | 21.6 µM (inactive) | 12 µM (inactive) | 20.2 µM (inactive) | 25.9 µM (inactive) | 24.4 µM (inactive) | 22.6 µM (inactive) | 35.3 µM (inactive)
C/C=C1\CN2CCc3c([nH]c4ccccc34)C2C=C1CCO (stereo not drawn) | > 340 µM (inactive) | > 340 µM (inactive) | > 340 µM (inactive) | > 340 µM (inactive) | > 340 µM (inactive) | > 340 µM (inactive) | > 340 µM (inactive) |  | > 340 µM (inactive) | > 340 µM (inactive) | > 340 µM (inactive) | > 340 µM (inactive) | > 340 µM (inactive) | > 340 µM (inactive) | > 340 µM (inactive) | > 340 µM (inactive) | > 340 µM (inactive) | > 340 µM (inactive) |  | 
Cc1nn(C(=O)CC(=O)Nc2ccc(Cl)cc2)c(C)c1/N=N/c1ccccc1C(=O)O | > 100 µM (inactive) | > 100 µM (inactive) | > 100 µM (inactive) | > 100 µM (inactive) | > 100 µM (inactive) | > 100 µM (inactive) | > 100 µM (inactive) | > 100 µM (inactive) | > 100 µM (inactive) | > 100 µM (inactive) | > 100 µM (inactive) | > 100 µM (inactive) |  | > 100 µM (inactive) | > 100 µM (inactive) | > 100 µM (inactive) | > 100 µM (inactive) | > 100 µM (inactive) | > 100 µM (inactive) | 
CC(=O)C(=[N+]=[N-])C(=O)NCC#N | > 10 µM (inactive) | > 10 µM (inactive) | > 10 µM (inactive) | > 10 µM (inactive) |  | > 10 µM (inactive) | > 10 µM (inactive) | > 10 µM (inactive) | > 10 µM (inactive) | > 10 µM (inactive) | > 10 µM (inactive) | > 10 µM (inactive) | > 10 µM (inactive) | > 10 µM (inactive) | > 10 µM (inactive) | > 10 µM (inactive) | > 10 µM (inactive) | > 10 µM (inactive) | > 10 µM (inactive) | > 10 µM (inactive)
CC(=O)[C@H]1CC[C@H]2[C@@H]3CCC4=CC(=O)CC[C@]4(C)[C@H]3CC[C@]12C [PROGESTERONE] | 18.1 µM (inactive) | 23.2 µM (inactive) | 12.1 µM (inactive) | 25.3 µM (inactive) |  | 9.98 µM (inactive) | 15.7 µM (inactive) | 11.4 µM (inactive) | 18.4 µM (inactive) | 10.6 µM (inactive) | 20.6 µM (inactive) | 17.6 µM (inactive) | 22.4 µM (inactive) | 17.3 µM (inactive) | 17.5 µM (inactive) | 20.4 µM (inactive) | 14.5 µM (inactive) | 12.1 µM (inactive) | 24.5 µM (inactive) | 3.3 µM (inactive)
C=C1C(C)C2C(Cc3ccccc3)NC(=O)C23OC(=O)/C=C\CC(=O)CCC(C)C/C=C/C3C1O (stereo not drawn) | 3.1 µM (inactive) | 1.66 µM (inactive) | 3.71 µM (inactive) | 4.41 µM (inactive) | 2.34 µM (inactive) |  |  | 0.512 µM (active) | 1.39 µM (inactive) | 0.757 µM (active) | 0.438 µM (active) |  | 0.43 µM (active) | 1.82 µM (inactive) | 0.875 µM (active) | 6.05 µM (inactive) | 2.54 µM (inactive) | 0.91 µM (active) | 1.37 µM (inactive) | 
COC1OC(COS(=O)(=O)c2ccc(C)cc2)C(O)C(OS(=O)(=O)c2ccc(C)cc2)C1OS(=O)(=O)c1ccc(C)cc1 (stereo not drawn) | > 100 µM (inactive) | > 100 µM (inactive) | > 100 µM (inactive) | > 100 µM (inactive) | > 100 µM (inactive) | > 100 µM (inactive) | > 100 µM (inactive) | > 100 µM (inactive) | > 100 µM (inactive) | > 100 µM (inactive) | > 100 µM (inactive) | > 100 µM (inactive) | > 100 µM (inactive) | > 100 µM (inactive) |  | > 100 µM (inactive) | > 100 µM (inactive) | > 100 µM (inactive) |  | 
CC(C)c1[nH]nc(C(N)=O)c1/N=N/N(C)C | > 100 µM (inactive) | 59.8 µM (inactive) | 88.1 µM (inactive) | 23.7 µM (inactive) |  | > 100 µM (inactive) | 36.6 µM (inactive) | 0.237 µM (active) | > 100 µM (inactive) | 79.8 µM (inactive) | > 100 µM (inactive) | 69.2 µM (inactive) | 63.1 µM (inactive) | > 100 µM (inactive) | 35.7 µM (inactive) | 52.5 µM (inactive) | 98.4 µM (inactive) | 31.9 µM (inactive) | > 100 µM (inactive) | 54.7 µM (inactive)
CC(=O)c1ccc2c(c1)C(=O)c1sc(C(C)=O)cc1C2=O | 1.09 µM (active) | 1.17 µM (inactive) | 0.389 µM (active) | 2.59 µM (inactive) |  | 0.24 µM (active) | 0.403 µM (active) | 1.07 µM (active) | 2.25 µM (inactive) | 1.7 µM (inactive) | 1.68 µM (inactive) | 0.804 µM (active) | 1.3 µM (inactive) | 0.526 µM (active) | 0.22 µM (active) | 6.98 µM (inactive) | 0.488 µM (active) | 0.233 µM (active) | 21.6 µM (inactive) | 1.46 µM (inactive)
Cc1cccc2c(N)c3cccc(C(=O)NCC[N+](C)(C)Cc4c([N+](=O)[O-])ncn4C)c3nc12 | 17.5 µM (inactive) | 28.2 µM (inactive) | 26.1 µM (inactive) | 3.78 µM (inactive) |  | 5.92 µM (inactive) | 18.9 µM (inactive) | 16.6 µM (inactive) | > 100 µM (inactive) | 11.1 µM (inactive) | 6.5 µM (inactive) | 11.5 µM (inactive) | 48 µM (inactive) | > 43.6 µM (inactive) | 11.4 µM (inactive) | 31.6 µM (inactive) | 26.4 µM (inactive) | 3.05 µM (inactive) | 47.6 µM (inactive) | 31.2 µM (inactive)
